Consider one compound from article PMC6257670 (2010).

In this test the test system is biotinylated m012 (RNA, aptamer) GGCGAAUUCUUCCGUUAUUGGAGCCAAGUCGCC
The experiment in a line: competitive ELAA, absorbance 405 nm. As to conditions: 150 mM NaCl, 5 mM MgCl2; 50 mM HEPES pH 7.4 (wash), 25 °C; biotinylated SPC (6 µM) displaced; immobilised aptamer.

In the case of `CCCCCCCCCCCCC/C=C/[C@@H](O)[C@@H](N)COP(=O)([O-])OCC[N+](C)(C)C`, the binding result is reported as “yes”.
